Consider five molecules from article PMC8149447, “Caerulomycin and collismycin antibiotics share a trans-acting flavoprotein-dependent assembly line for 2,2’-bipyridine formation” (Nature Communications, 2021).

Assay [1] concerns the target T1, ColA3 (Streptomyces filamentosus, UniProt A0ABY4UPY4).
T1 construct: gene K7395_06055; full length C-A-PCP module, N-terminal 6xHis (or MBP-6xHis) tag
The experiment in a line: HPLC / MS of product […] (as IAA derivative […]) or […]. Format: biochemical. The conditions noted are these: reconstituted with CaeA1, CaeA2, CaeB1; picolinic acid, malonyl-CoA, L-cysteine, ATP, Mg, pH 7.5, 30 C.

Assay [2] addresses T2, ColB1 (Streptomyces filamentosus, UniProt A0ABY4UQ20).
T2 construct: gene K7395_06050; full length, N-terminal 6xHis (or MBP-6xHis) tag; noncovalent FAD
T2 sequence (A0ABY4UQ20 1-394): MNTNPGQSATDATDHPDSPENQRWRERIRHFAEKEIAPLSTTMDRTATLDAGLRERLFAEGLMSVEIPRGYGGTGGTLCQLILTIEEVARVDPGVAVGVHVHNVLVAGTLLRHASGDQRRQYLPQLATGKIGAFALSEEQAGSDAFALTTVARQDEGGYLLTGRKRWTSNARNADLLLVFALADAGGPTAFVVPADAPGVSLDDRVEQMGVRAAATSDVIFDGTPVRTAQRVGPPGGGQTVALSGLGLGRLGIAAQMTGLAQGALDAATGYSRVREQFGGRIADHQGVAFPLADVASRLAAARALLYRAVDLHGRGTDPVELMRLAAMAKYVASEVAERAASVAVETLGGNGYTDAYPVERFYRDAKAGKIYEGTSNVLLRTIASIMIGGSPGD
The experiment in a line: heat denaturation and HPLC-DAD / ESI-HR-MS. The following applies: noncovalent; co-purified. Format: binding.

Assay [3] addresses T3, CaeB1 (Actinoalloteichus caeruleus, UniProt M1F383, E372L).
T3 construct: full length, N-terminal 6xHis (or MBP-6xHis) tag, expressed in E. coli; noncovalent FAD
The experiment in a line: absorbance spectrum of purified protein. The assay is classed as binding. The following applies: noncovalent; co-purified, oxidized form.

The target of assay [4] is T4, CaeB1 (Actinoalloteichus caeruleus, UniProt M1F383, S168A).
T4 construct: full length, N-terminal 6xHis (or MBP-6xHis) tag, expressed in E. coli; noncovalent FAD
The experiment in a line: absorbance spectrum; activity rescue by added FAD. Format: biochemical. The following applies: noncovalent; excess FAD added in the product assay.

The target of assay [5] is T5, CaeB1 (Actinoalloteichus caeruleus, UniProt M1F383).
T5 construct: full length, N-terminal 6xHis (or MBP-6xHis) tag, expressed in E. coli; noncovalent FAD
T5 sequence (M1F383 1-386): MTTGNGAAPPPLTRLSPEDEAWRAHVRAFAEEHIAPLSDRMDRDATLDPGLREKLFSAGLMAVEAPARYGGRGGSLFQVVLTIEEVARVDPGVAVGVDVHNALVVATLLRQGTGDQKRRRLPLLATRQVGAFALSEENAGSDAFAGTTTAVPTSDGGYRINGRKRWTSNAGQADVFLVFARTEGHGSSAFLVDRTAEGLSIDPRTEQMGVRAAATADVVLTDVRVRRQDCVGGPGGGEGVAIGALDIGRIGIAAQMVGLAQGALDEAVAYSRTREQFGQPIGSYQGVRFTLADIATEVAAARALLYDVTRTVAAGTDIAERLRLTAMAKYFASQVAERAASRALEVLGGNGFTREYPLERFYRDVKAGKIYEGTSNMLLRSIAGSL
In words: absorbance spectrum; heat denaturation and HPLC-HR-MS. The assay is classed as binding. The following applies: noncovalent; co-purified, oxidized form.

Assay [6] addresses N-terminally thioredoxin (Trx)-tagged Ct domain of the CaeA2 NRPS module (A. cyanogriseus (CAE-producing strain)). In words: ITC; MicroCal-ITC200, 25°C; 60 μM CaeA2 construct in the cell, 400 μM flavoprotein in the syringe; 50 mM Tris-HCl pH 7.5, 100 mM NaCl, 0.1 mM TCEP, 5% glycerol; single binding site model.
The target of assay [7] is Ct-PCP didomain of the CaeA2 NRPS module (A. cyanogriseus (CAE-producing strain)). The description is as above.
Assay [8] has as its target T6, MBP-fused CaeB1 variant (A. cyanogriseus (CAE-producing strain), UniProt M1F383 1-386).
T6 construct: CaeB1, flavin (FAD)-dependent protein of the caerulomycin (cae) biosynthetic gene cluster; also called trans-acting flavoprotein; not shown: MBP, N-terminal, kept
T6 sequence (looked up): T5 sequence (M1F383 1-386)
The assay is described as above. The following applies: both partners purified.

T4 sequence (M1F383 entry or part of it S168A): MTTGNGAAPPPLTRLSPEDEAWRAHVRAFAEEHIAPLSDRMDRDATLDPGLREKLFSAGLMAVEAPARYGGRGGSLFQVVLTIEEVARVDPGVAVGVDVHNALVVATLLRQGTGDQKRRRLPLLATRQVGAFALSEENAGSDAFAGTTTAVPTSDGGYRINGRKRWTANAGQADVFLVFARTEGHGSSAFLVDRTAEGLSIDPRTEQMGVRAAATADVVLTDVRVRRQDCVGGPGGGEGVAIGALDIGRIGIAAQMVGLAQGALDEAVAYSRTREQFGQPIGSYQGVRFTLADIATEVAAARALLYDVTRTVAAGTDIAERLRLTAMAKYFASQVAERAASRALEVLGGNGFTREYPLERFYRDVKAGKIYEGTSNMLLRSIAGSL
T3 sequence (M1F383 entry or part of it E372L): as the sequence (M1F383 entry or part of it S168A) above, with A168S, E372L counted along it
T1 sequence (A0ABY4UPY4 entry or part of it): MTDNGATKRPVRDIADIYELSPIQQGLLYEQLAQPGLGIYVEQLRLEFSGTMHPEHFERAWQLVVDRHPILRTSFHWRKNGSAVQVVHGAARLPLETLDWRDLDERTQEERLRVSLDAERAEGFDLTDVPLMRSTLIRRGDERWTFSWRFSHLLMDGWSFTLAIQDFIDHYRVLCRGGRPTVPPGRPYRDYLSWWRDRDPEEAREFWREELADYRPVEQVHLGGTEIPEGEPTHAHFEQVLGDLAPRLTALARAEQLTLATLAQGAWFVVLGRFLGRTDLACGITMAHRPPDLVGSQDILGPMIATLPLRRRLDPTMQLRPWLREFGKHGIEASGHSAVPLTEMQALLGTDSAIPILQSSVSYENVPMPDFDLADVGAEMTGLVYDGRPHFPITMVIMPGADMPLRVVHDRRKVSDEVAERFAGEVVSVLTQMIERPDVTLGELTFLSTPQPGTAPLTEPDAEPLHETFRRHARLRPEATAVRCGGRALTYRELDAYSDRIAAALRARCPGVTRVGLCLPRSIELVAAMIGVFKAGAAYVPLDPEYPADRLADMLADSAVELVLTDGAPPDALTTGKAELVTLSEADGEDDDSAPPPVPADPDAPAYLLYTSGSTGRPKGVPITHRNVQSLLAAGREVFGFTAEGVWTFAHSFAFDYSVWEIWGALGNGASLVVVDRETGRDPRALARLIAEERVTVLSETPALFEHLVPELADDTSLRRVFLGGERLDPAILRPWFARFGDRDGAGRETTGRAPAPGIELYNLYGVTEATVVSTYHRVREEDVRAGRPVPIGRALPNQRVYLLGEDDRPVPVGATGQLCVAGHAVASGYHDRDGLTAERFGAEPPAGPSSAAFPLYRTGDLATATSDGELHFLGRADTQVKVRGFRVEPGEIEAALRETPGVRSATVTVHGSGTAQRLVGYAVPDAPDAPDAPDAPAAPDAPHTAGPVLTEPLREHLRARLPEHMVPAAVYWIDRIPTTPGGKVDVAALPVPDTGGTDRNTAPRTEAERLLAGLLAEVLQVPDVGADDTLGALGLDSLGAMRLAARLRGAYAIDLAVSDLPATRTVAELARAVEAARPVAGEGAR

In the case of `CC(C)C[C@H](N)C(=O)O` [L-leucine], the “HPLC / MS of product 15 (as IAA derivative 17) or 16” value in assay [1] was “incubating CaeA1, CaeA2, and CaeB1 with ColA3 in the presence of the necessary substrates”.

For the molecule `Cc1cc2nc3c(=O)[nH]c(=O)nc-3n(C[C@H](O)[C@H](O)[C@H](O)COP(=O)(O)OP(=O)(O)OC[C@H]3O[C@@H](n4cnc5c(N)ncnc54)[C@H](O)[C@@H]3O)c2cc1C` [FAD], the “heat denaturation and HPLC-DAD / ESI-HR-MS” value in assay [2] is on record as “ColB1, the homolog of trans-acting flavoprotein CaeB1 that also noncovalently binds a FAD cofactor”. Also, in assay [3], the “absorbance spectrum of purified protein” value is “shares with the wild-type protein a light yellow color and an absorbance spectrum characteristic of FAD”. The FAD-binding ability result in assay [4] is listed as “the latter variant was nearly colorless, indicating the loss of FAD-binding ability”. The “absorbance spectrum; heat denaturation and HPLC-HR-MS” value in assay [5] is given as “Purified CaeB1, which appeared light yellow, was determined to bind oxidized flavin adenine dinucleotide (FAD)”.

As to ColB1 (enzyme), the Kd in assay [6] was 1180 nM.

B1: MBP-fused CaeB1 variant (enzyme)
chain: T5 sequence (M1F383 1-386)
Regarding B1, in assay [7], the Kd was 420 nM.

B2: N-terminally thioredoxin (Trx)-tagged Ct domain of the CaeA2 NRPS module (domain or fragment)
chain: EQEADGTVAPFTPHQAALVAEGAVDWITVEAAASDLDPALAERALREIADRHPALRLRSGTRDDGTPGQYDGGSPGDGLFSEIDLSGLAEDARDDALAEIVAEMSEEVGLAEREPVKLAVVRAGADDVRLLWLAAGAALDDTSWRLLLAEFGRAYQQLAERGSIDWTGMPESVLGWVATQEGAAPPPSVETVAFTGELRTVLDADVTTAFAEATFGAYHLELGEAVAAALTVAARAWPGREPAVTVERSLRTATTDEALGRFTEVTTLDVAAEAVADTLTGVKRAYRDVVRPAPAHPRVHLRDVRSGDWRPTAGPLSPAGLSSPVSTATTPEVLAEVGAAVVGGELVLRWRHTTDAAEATALAEAFTEAVETITEHCRQAGSGSYEPSDFPLAGVDPDELSALLSTLEK
modifications: Trx/6xHis tag omitted; Ct primers not in the excerpt; start placed just after the Carrier feature (2001-2075), in line with the 58 kDa Trx fusion and the 44 kDa difference between CaeA2 and …
B2 returned a Kd in assay [8] of 530 ± 120 nM.

Usually Kd stands for the constant that tells how readily two partners part at equilibrium. A low value points to higher affinity.
